Source: PMC7397249, “Properly Substituted Cyclic Bis-(2-bromobenzylidene) Compounds Behaved as Dual p300/CARM1 Inhibitors and Induced Apoptosis in Cancer Cells” (Molecules, 2020)

Tests used:
[1] = target: T1, p300 (Homo sapiens, UniProt Q09472); experiment: HotSpot HAT activity assay, p300; type: biochemical; settings: 10-dose, triplicate, from 200 μM; histone H3, [acetyl-3H]-acetyl-CoA
T1 construct: p300 (aa 1284–1673, 30 nM); purchased Reaction Biology Corporation
T1 sequence (Q09472 1284-1673): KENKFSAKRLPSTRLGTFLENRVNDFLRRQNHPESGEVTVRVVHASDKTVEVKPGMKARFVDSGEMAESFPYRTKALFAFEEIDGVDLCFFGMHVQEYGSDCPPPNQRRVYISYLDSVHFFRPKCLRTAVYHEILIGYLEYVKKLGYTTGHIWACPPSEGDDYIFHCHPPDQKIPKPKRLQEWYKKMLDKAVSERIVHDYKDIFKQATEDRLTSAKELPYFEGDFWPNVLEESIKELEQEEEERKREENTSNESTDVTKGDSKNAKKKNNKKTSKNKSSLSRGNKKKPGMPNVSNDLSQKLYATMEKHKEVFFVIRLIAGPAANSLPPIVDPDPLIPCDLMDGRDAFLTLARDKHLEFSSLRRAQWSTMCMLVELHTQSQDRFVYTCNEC
Experimental: The newly synthesized compounds 4a–n were tested to determine their effects against acetylation and methylation epigenetic targets. First, 4a–n were screened in vitro against the two HAT enzymes p300 and PCAF. […] To determine the activity against SIRT1 and -2, 4a–n were tested starting from 200 μM solutions using a modified Fluor de Lys fluorescence-based assay with amino acids 379–382 (Arg-His-Lys-Lys(Ac)) of human p53 conjugated with aminomethylcoumarin as substrate and NAD^+ as co-substrate. […] Furthermore, 4a–n were tested against a human five-membered Polycomb repressive complex 2 (PRC2) containing EZH2, embryonic ectoderm development (EED), suppressor of zeste 12 (SUZ12), RbAp48, and adipocyte enhancer-binding protein (AEBP2), to assess their capability to inhibit the catalytic unit EZH2.
The effect of tested derivatives on the catalytic activity of p300 and PCAF was determined in a HotSpot HAT activity assay by Reaction Biology Corporation (Malvern, PA, USA) according to the company’s standard operating procedure. In brief, the recombinant catalytic domains of PCAF (aa 492–658, 250 nM) or p300 (aa 1284–1673, 30 nM) were incubated with histone H3 as substrate (5 µM) and [Acetyl-^3H]-Acetyl Coenzyme A (3 µM) as an acetyl donor in reaction buffer (50 mM Tris-HCl (pH 8.0), 50 mM NaCl, 0.1 mM EDTA, 1 mM DTT, 1 mM PMSF, 1% DMSO) for 1 h at 30 °C in the presence or absence of a dose titration of the compounds. The reaction mixture was delivered to filter-paper for detection. IC50 values were analyzed using Excel and GraphPad Prism 6.0 software (GraphPad Software Inc., San Diego, CA, USA). The experiments for p300 were performed in triplicate.

[2] = test system: p300; experiment: Western blot of acetylation marks (p300 inhibition) in MCF-7 cells; type: cell-based, human; settings: 5 μM, 30 h
Experimental: (§1) In MCF-7 cells, the levels of acetyl-H3, acetyl-H4, H3K27me3, and H3R17me2 were detected by western blot analyses as functional tests for p300 (acH3 and acH4), EZH2 (H3K27me3) and CARM1 (H3R17me2) inhibition in cells, respectively (Figure 5).
(§2) The procedures were performed as described in [30, 31]. Primary antibodies used were: Ac-H3 (Millipore, Milan, Italy); Ac-H4 (Millipore, Milan, Italy); Ac-H3K9-14 (Diagenode, Ougrée, Belgium); Ac-α-tubulin (Sigma-Aldrich), H3K27me3 (Diagenode); H3R17me2 (Diagenode); EZH2 (Abcam, Cambridge, UK). H3 (Sigma-Aldrich), H4 (Abcam), GAPDH (Sigma) and ERKs (Santa Cruz, Biotechnology, TX, USA) were used to normalize the total protein extracts (see also Supplementary Material).

[3] = test system: EZH2; experiment: Western blot of H3K27me3 (EZH2) in MCF-7 cells; type: cell-based, human; settings: 5 μM, 30 h
Experimental: as §1, §2

[4] = test system: NB4 cells; experiment: Cell cycle and apoptosis (sub-G1) analysis by FACS in NB4 cells; type: cell-based, human; settings: 5 μM, 30 h
Experimental: (§3) Compounds 4a–n were tested at 5 μM for 30 h in NB4 […] and U937 AML cells among hematological cancers, and in MCF-7 breast cancer and SH-SY5Y neuroblastoma cells among solid cancers, to determine their effects in cell cycle and apoptosis induction.
(§4) In the same cell lines, the induction of apoptosis has been evaluated through the percentage of the sub-G1 peaks.
(§5) For colorimetric exclusion, the cells (2 × 10^5 cells/mL) were plated in multiwells in triplicate. After stimulations at different times and concentrations, cells were diluted in the ratio 1:1 in Trypan Blue (Sigma) and counted with an optical microscope. For cell cycle analyses, cells were plated (2 × 10^5 cells/mL) and were harvested, centrifuged at 1200 rpm for 5 min and resuspended in 500 μL of a hypotonic solution containing 1× PBS, Sodium Citrate 0.1%, 0.1% NP-40, RNAase A and […] Propidium Iodide (PI). After 30 min at room temperature (RT) in the dark, samples were acquired by FACS-Calibur (BD Bioscences, San Jose, CA, USA) using CellQuest software (BD Biosciences). The percentage in different phases of the cell cycle was determined by ModFit LT V3 software (Verity). All experiments were performed in triplicate. Cell death was measured as percentage of cells in sub-G1 phase as in [30].

[5] = test system: MCF-7 cells; experiment: Cell cycle and apoptosis (sub-G1) analysis by FACS in MCF-7 cells; type: cell-based, human; settings: 5 μM, 30 h
Experimental: as §3, §4, §5

[6] = test system: U937 cells; experiment: Cell cycle and apoptosis (sub-G1) analysis by FACS in U937 cells; type: cell-based, human; settings: 5 μM, 30 h
Experimental: as §3, §4, §5

[7] = test system: CARM1; experiment: Western blot of H3R17me2 (CARM1 inhibition) in NB4 cells; type: cell-based, human; settings: 5 μM, 30 h
Source text: In NB4 cells, the levels of acetyl-H3 (acH3) and acetyl-H4 (acH4) as well as those of acetyl-H3K9/14 (AcH3K9/14, see Supplementary material) and of the non-histone substrate acetyl-α-tubulin (Ac-Tubulin) were detected as an index of p300 inhibition (Figure 4). In the same cell line, the levels of H3K27me3, histone mark of the EZH2 catalytic activity (Figure 4), as well as the level of the EZH2 expression (see Supplementary material) have been determined. Last, the amount of H3R17me2, the functional read-out of CARM1 inhibition, was determined (Figure 4).
as §2

[8] = test system: SH-SY5Y cells; experiment: Cell cycle and apoptosis (sub-G1) analysis by FACS in SH-SY5Y cells; type: cell-based, human; settings: 5 μM, 30 h
Experimental: as §3, §4, §5

[9] = Cell viability in non-cancer mesenchymal progenitor cells (differential toxicity); type: cell-based; settings: human, MePR2B cells, control 100%, read-out: percentage of cell viability
Experimental: After treatment at 5 μM for 30 h, 4l and 4m reduced the percentage of cell viability to 61.2 ± 0.8 and 85.5 ± 3.7, respectively, in comparison with the control (100%).
as §5

Compound | IC50 [1] [µM] | levels of acetyl-H4 [2] | levels of H3K27me3 [3] | induction of apoptosis, % sub-G1 peaks [4] [%] | cell cycle: block in G1/S phase with almost total absence of cells in the G2/M phase [5] | effect on cell cycle phases [6] | levels of H3R17me2 [7] | effect on cell cycle phases [8] | induction of apoptosis, % sub-G1 peaks [8] | induction of apoptosis, % sub-G1 peaks [5] | levels of acetyl-α-tubulin [2] | cell cycle: block in G1/S phase with almost total absence of cells in the S phase [5] | viability at 30 h, 5 µM [9] [%]
O=C1/C(=C/c2ccccc2Br)CN(Cc2ccccc2)C/C1=C\c1ccccc1Br [Compound 4e, 1-benzyl-3,5-bis((E)-2-bromobenzylidene)piperidin-4-one] | 2.19 ± 0.77 | decrease of the acetylation levels | reduction of the H3K27me3 levels | 30 to 40 | almost total absence of cells | – | – | – | – | – | – | – | –
O=C1/C(=C/c2ccccc2Br)CN(CCc2ccccc2)C/C1=C\c1ccccc1Br [Compound 4f, 3,5-Bis((E)-2-bromobenzylidene)-1-phenethylpiperidin-4-one] | 30.2 ± 2.71 | – | – | – | – | block in G2/M phase | – | – | – | – | – | – | –
O=C1/C(=C/c2ccccc2Br)CN(CCCc2ccccc2)C/C1=C\c1ccccc1Br [Compound 4g, 3,5-Bis((E)-2-bromobenzylidene)-1-(3-phenylpropyl)piperidin-4-one] | 40.7 ± 2.39 | – | – | – | – | arrested the cell cycle at the G1/S phase | – | – | – | – | – | – | –
O=C1/C(=C/c2ccccc2Br)CN(CC(=O)c2ccccc2)C/C1=C\c1ccccc1Br [Compound 4h, 3,5-Bis((E)-2-bromobenzylidene)-1-(2-oxo-2-phenylethyl)piperidin-4-one] | 1.03 ± 0.22 | – | reduction of the H3K27me3 levels | 30 to 40 | – | – | most effective | arrest in the G1/S phase | less than 20% | around 25% | – | – | –
O=C1/C(=C/c2ccccc2Br)CN(CCCC(=O)c2ccccc2)C/C1=C\c1ccccc1Br [Compound 4j, 3,5-Bis((E)-2-bromobenzylidene)-1-(4-oxo-4-phenylbutyl)piperidin-4-one] | 2.13 ± 1.35 | decrease of the acetylation levels | reduction of the H3K27me3 levels | – | almost total absence of cells | – | – | arrest in the G1/S phase | – | – | – | – | –
O=C1/C(=C/c2ccccc2Br)CN(C(=O)c2ccccc2)C/C1=C\c1ccccc1Br [Compound 4k, 1-Benzoyl-3,5-bis((E)-2-bromobenzylidene)piperidin-4-one] | 2.09 ± 0.79 | – | – | 30 to 40 | – | – | – | – | – | – | decrease of the acetylation levels | almost total absence of cells | –
O=C1/C(=C/c2ccccc2Br)CN(C(=O)Cc2ccccc2)C/C1=C\c1ccccc1Br [Compound 4l, 3,5-Bis((E)-2-bromobenzylidene)-1-(2-phenylacetyl)piperidin-4-one] | 0.45 ± 0.03 | decrease of the acetylation levels | – | 67 | – | block in G2/M phase | most effective | arrest in the G1/S phase | – | – | – | almost total absence of cells | 61.2 ± 0.8
O=C1/C(=C/c2ccccc2Br)CN(C(=O)CCc2ccccc2)C/C1=C\c1ccccc1Br [Compound 4m, 3,5-Bis((E)-2-bromobenzylidene)-1-(3-phenylpropanoyl)piperidin-4-one] | 0.46 ± 0.1 | – | reduction of the H3K27me3 levels | 56 | almost total absence of cells | block in G2/M phase | most effective | arrest in the G1/S phase | 17% | – | – | – | 85.5 ± 3.7
O=C1/C(=C/c2ccccc2Br)CN(C(=O)C=Cc2ccccc2)C/C1=C\c1ccccc1Br [Compound 4n, 3,5-Bis((E)-2-bromobenzylidene)-1-cinnamoylpiperidin-4-one] | 1.23 ± 0.29 | decrease of the acetylation levels | reduction of the H3K27me3 levels | – | almost total absence of cells | arrested the cell cycle at the G1/S phase | – | – | – | – | – | almost total absence of cells | –
